Assay results published in the supplement of paper PMC11061612.

Experiments:
Test in all cases: Bliss excess, mean over the matrix (fraction); higher = more synergy
[1] = test system: ATN-1 (T-Lymphoblastic Leukemia)
In short: (§1)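 Cell lines in DMEM/F12 or RPMI with 10% FBS were plated in 1536-well plates, held 24 hours at 37°C, 5% CO2, then given two-drug dose matrices for 72 hours (DMSO typically 0.2%). Viability was read by CellTiter-Glo 2.0 luminescence and scaled as inhibition from 0 (vehicle wells) to 1 (blank wells). Combination Emax is the second-highest inhibition in the matrix; Bliss excess is observed combination effect minus expected EA + EB − EA·EB, EA and EB being single-agent effects.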

[2] = test system: BC-1 (B-Cell Non-Hodgkin's Lymphoma)
In short: as §1

[3] = test system: C2BBe1 (Colorectal Carcinoma)
In short: as §1

[4] = test system: C32 (Melanoma)
In short: as §1

[5] = test system: GRANTA-519 (B-Cell Non-Hodgkin's Lymphoma)
In short: as §1

[6] = test system: HT-144 (Melanoma)
In short: as §1

[7] = test system: HT-3 (Cervical Carcinoma)
In short: as §1

[8] = test system: IGROV-1 (Ovarian Carcinoma)
In short: as §1

[9] = test system: JJN-3 (Plasma Cell Myeloma)
In short: as §1

[10] = test system: JURL-MK1 (Chronic Myelogenous Leukemia)
In short: as §1

[11] = test system: L-363 (Plasma Cell Myeloma)
In short: as §1

[12] = test system: NCI-H1648 (Lung Adenocarcinoma)
In short: as §1

[13] = test system: NCI-H2009 (Lung Adenocarcinoma)
In short: as §1

[14] = test system: NTERA-2-cl-D1 (Other Solid Carcinomas)
In short: as §1

[15] = test system: OVKATE (Ovarian Carcinoma)
In short: as §1

[16] = test system: RS4-11 (B-Lymphoblastic Leukemia)
In short: as §1

[17] = test system: SK-N-DZ (Neuroblastoma)
In short: as §1

[18] = test system: SNU-1 (Gastric Carcinoma)
In short: as §1

[19] = test system: SUP-HD1 (Hodgkin's Lymphoma)
In short: as §1

[20] = test system: SW1463 (Colorectal Carcinoma)
In short: as §1

Row | SMILES | Bliss excess [1] | Bliss excess [2] | Bliss excess [3] | Bliss excess [4] | Bliss excess [5] | Bliss excess [6] | Bliss excess [7] | Bliss excess [8] | Bliss excess [9] | Bliss excess [10] | Bliss excess [11] | Bliss excess [12] | Bliss excess [13] | Bliss excess [14] | Bliss excess [15] | Bliss excess [16] | Bliss excess [17] | Bliss excess [18] | Bliss excess [19] | Bliss excess [20]
1 | NC1(C(=O)N[C@@H](CCO)c2ccc(Cl)cc2)CCN(c2ncnc3[nH]ccc23)CC1 [Capivasertib] + C[C@@H]1COCCN1C2=NC(=NC(=C2)C3(CC3)[S@](=N)(=O)C)C4=C5C=CNC5=NC=C4 [AZD6738] (first compound max 10 µM, 7x7, partner max 10 µM) | -0.0127 | 0.0034 | -0.0722 | -0.0288 | -0.0136 | -0.0292 | -0.0091 | -0.0883 | -0.0181 | 0.0117 | -0.0201 | -0.0878 | -0.0483 | -0.0258 | -0.0516 | -0.0276 | 0.0045 | 0.0135 | -0.0508 | -0.101
2 | COc1nnc2ccc(N3CCC(c4ccc(OCCN5CCN(C)C(=O)[C@H]5C)cc4)CC3)nn12 [AZD5153] + C[C@@H]1COCCN1C2=NC(=NC(=C2)C3(CC3)[S@](=N)(=O)C)C4=C5C=CNC5=NC=C4 [AZD6738] (first compound max 1 µM, 7x7, partner max 10 µM) | 0.0411 | -0.0709 | -0.0066 | 0.0069 | 0.0096 | 0.0637 | 0.0769 | 0.0079 | -0.0394 | 0.0077 | -0.0453 | -0.0572 | 0.081 | 0.0005 | -0.0027 | 0.0145 | 0.0472 | 0.0228 | -0.0281 | -0.074
3 | CS(=O)(=O)CCNCc1ccc(-c2ccc3ncnc(Nc4ccc(OCc5cccc(F)c5)c(Cl)c4)c3c2)o1 [Lapatinib] + C[C@@H](Oc1cc(-c2cnn(C3CCNCC3)c2)cnc1N)c1c(Cl)ccc(F)c1Cl [Crizotinib] (first compound max 10 µM, 7x7, partner max 10 µM) | 0.0298 | -0.0557 | -0.018 | -0.0067 | 0.0192 | -0.0643 | -0.0357 | -0.0518 | -0.0287 | 0.003 | -0.0208 | 0.0036 | -0.0506 | -0.0579 | -0.0448 | -0.0183 | -0.0702 | 0.0039 | -0.0579 | 0.0138
4 | CC1(C)CCC(CN2CCN(c3ccc(C(=O)NS(=O)(=O)c4ccc(NCC5CCOCC5)c([N+](=O)[O-])c4)c(Oc4cnc5[nH]ccc5c4)c3)CC2)=C(c2ccc(Cl)cc2)C1 [Venetoclax] + Cc1cc2ncnn2cc1Nc1ncc2c(n1)n(C1CCOCC1)c(=O)n2C [AZD7648] (first compound max 1 µM, 7x7, partner max 10 µM) | 0.0196 | 0.017 | -0.0132 | -0.0219 | 0.0007 | -0.0798 | -0.016 | -0.0589 | 0.0741 | -0.0068 | 0.0281 | -0.0431 | -0.053 | -0.0216 | -0.113 | -0.0149 | -0.0112 | -0.0408 | -0.0659 | -0.0479
5 | NC1(C(=O)N[C@@H](CCO)c2ccc(Cl)cc2)CCN(c2ncnc3[nH]ccc23)CC1 [Capivasertib] + CCN(CCO)CCCOc1ccc2c(Nc3cc(CC(=O)Nc4cccc(F)c4)[nH]n3)ncnc2c1 [AZD2811] (first compound max 10 µM, 7x7, partner max 1 µM) | -0.0813 | -0.0383 | -0.0382 | 0.0477 | 0.0258 | -0.0195 | -0.0327 | -0.0632 | -0.0148 | 0.0026 | -0.0235 | -0.0419 | 0.0001 | 0.0106 | -0.0367 | -0.0504 | 0.0051 | 0.0214 | -0.0307 | -0.0239
6 | Cc1c2c(nn1C)CSCc1cc(n(C)n1)CSc1cc(c3ccccc3c1)OCCCc1c(C(=O)O)n(C)c3c-2c(Cl)ccc13 [AZD5991] + C[C@@H]1COCCN1C2=NC(=NC(=C2)C3(CC3)[S@](=N)(=O)C)C4=C5C=CNC5=NC=C4 [AZD6738] (first compound max 1 µM, 7x7, partner max 10 µM) | 0.0085 | -0.0396 | -0.0093 | 0.0531 | 0.0107 | 0.0039 | 0.08 | 0.0449 | -0.0071 | 0.0056 | -0.0625 | 0.0052 | 0.0199 | 0.0936 | -0.0421 | -0.0197 | -0.0078 | 0.035 | -0.0279 | -0.023
7 | Cc1c2c(nn1C)CSCc1cc(n(C)n1)CSc1cc(c3ccccc3c1)OCCCc1c(C(=O)O)n(C)c3c-2c(Cl)ccc13 [AZD5991] + Cn1cnc2c(F)c(Nc3ccc(Br)cc3Cl)c(C(=O)NOCCO)cc21 [Selumetinib] (first compound max 1 µM, 7x7, partner max 3 µM) | -0.0672 | 0.012 | -0.0033 | 0.0678 | -0.0162 | 0.01 | 0.0926 | 0.0372 | 0.0114 | 0.0259 | 0.0099 | 0.0396 | 0.0176 | 0.0115 | -0.0724 | 0.0021 | 0.018 | 0.0926 | -0.011 | -0.0352
